Measurements published in PubChem BioAssay AID1259407 (Chemical Carcinogenesis Research Information System (CCRIS), 2018).
Active and inactive are the calls of the source. No rule for the calls is given here.

System: CCRIS mutagenicity, Ames/micronucleus/aberration tests
Assay: CCRIS mutagenicity studies
[1] = Test System: AMES SALMONELLA TYPHIMURIUM, Strain/Indicator: TA98, Metabolic Activation: NONE, Method: STANDARD PLATE
[2] = Test System: AMES SALMONELLA TYPHIMURIUM, Strain/Indicator: TA98, Metabolic Activation: RAT, LIVER, S-9, AROCLOR 1254, Method: STANDARD PLATE
[3] = Test System: AMES SALMONELLA TYPHIMURIUM, Strain/Indicator: TA100, Metabolic Activation: NONE, Method: STANDARD PLATE
[4] = Test System: AMES SALMONELLA TYPHIMURIUM, Strain/Indicator: TA100, Metabolic Activation: RAT, LIVER, S-9, AROCLOR 1254, Method: STANDARD PLATE

Measured: mutagenic call

Cc1ccccc1N=O
active: [4] active; positive
inactive: [1] inactive; negative | Test System: AMES SALMONELLA TYPHIMURIUM, Strain/Indicator: TA98, Metabolic Activation: RAT, LIVER, S-9, AROCLOR 1254, Method: PREINCUBATION inactive; negative | [2] inactive; negative | [3] inactive; negative

O=[N+]([O-])c1ccc2c(c1)NCC2
active: [1] active; positive

CN(C)c1ccc(N=Nc2cccc3ccccc23)cc1
active: Test System: AMES SALMONELLA TYPHIMURIUM, Strain/Indicator: TA98, Metabolic Activation: HAMSTER, LIVER, S-9, AROCLOR 1254, Method: STANDARD PLATE active; positive | Test System: AMES SALMONELLA TYPHIMURIUM, Strain/Indicator: TA98, Metabolic Activation: HAMSTER, LIVER, S-9, Method: PREINCUBATION (PRIVAL METHOD) active; positive | Test System: AMES SALMONELLA TYPHIMURIUM, Strain/Indicator: TA98, Metabolic Activation: RAT, LIVER, S-9, AROCLOR 1254, HAMSTER, LIVER, S-9, AROCLOR 1254, Method: STANDARD PLATE active; positive | Test System: AMES SALMONELLA TYPHIMURIUM, Strain/Indicator: TA100, Metabolic Activation: HAMSTER, LIVER, S-9, AROCLOR 1254, Method: STANDARD PLATE active; positive | Test System: AMES SALMONELLA TYPHIMURIUM, Strain/Indicator: TA100, Metabolic Activation: HAMSTER, LIVER, S-9, Method: PREINCUBATION (PRIVAL METHOD) active; positive | Test System: AMES SALMONELLA TYPHIMURIUM, Strain/Indicator: TA1535, Metabolic Activation: RAT, LIVER, S-9, AROCLOR 1254, HAMSTER, LIVER, S-9, AROCLOR 1254, Method: STANDARD PLATE active; positive | Test System: AMES SALMONELLA TYPHIMURIUM, Strain/Indicator: TA1538, Metabolic Activation: RAT, LIVER, S-9, AROCLOR 1254, HAMSTER, LIVER, S-9, AROCLOR 1254, Method: STANDARD PLATE active; positive | Test System: MOUSE LYMPHOMA, Strain/Indicator: L5178Y (TK+/TK-), Metabolic Activation: RAT, LIVER, S-9, AROCLOR 1254, Method: SUSPENSION/PLATE active; positive. reevaluation of results: positive | Test System: Mouse lymphoma, Strain/Indicator: L5178Y (tk+/tk-), Metabolic Activation: None, Method: Suspension/plate active; positive

CNC(=O)c1cccc2c(Nc3ccc(NS(C)(=O)=O)cc3OC)c3cccc(C)c3nc12
inactive: [1] inactive; negative | [2] inactive; negative | [3] inactive; negative | [4] inactive; negative | Test System: CHINESE HAMSTER V-79, Strain/Indicator: V-79/OUABAIN, Metabolic Activation: NONE, Method: STANDARD PLATE inactive; negative
active: Test System: AMES SALMONELLA TYPHIMURIUM, Strain/Indicator: TA102, Metabolic Activation: NONE, Method: STANDARD PLATE active; positive | Test System: AMES SALMONELLA TYPHIMURIUM, Strain/Indicator: TA102, Metabolic Activation: RAT, LIVER, S-9, AROCLOR 1254, Method: STANDARD PLATE active; positive | Test System: AMES SALMONELLA TYPHIMURIUM, Strain/Indicator: TA1537, Metabolic Activation: NONE, Method: STANDARD PLATE active; positive | Test System: AMES SALMONELLA TYPHIMURIUM, Strain/Indicator: TA1537, Metabolic Activation: RAT, LIVER, S-9, AROCLOR 1254, Method: STANDARD PLATE active; positive | Test System: CHINESE HAMSTER V-79, Strain/Indicator: V-79/6-THIOGUANINE, Metabolic Activation: NONE, Method: STANDARD PLATE active; positive
